ChEMBL document CHEMBL4184281, “Pharmacology and in vivo efficacy of pyridine-pyrimidine amides that inhibit microtubule polymerization” (Bioorg Med Chem Lett, 2018)
Active and inactive are the calls of the source. The calls are words filed in the database; no cut-off is given here.

Experiments:
[1] = Toxicity in mouse; assay type: organism-based; conditions: in vivo
SNU-16 = assay: Antitumor activity against human SNU16 cells xenografted in nude BALB/c mouse assessed as tumor growth inhibition relative to control; assay type: functional
[2] = Tmax in CD-1 mouse administered as single po dose by mass spectrometry; assay type: ADME, organism-based; conditions: in vivo
[3] = Toxicity in mouse administered as single po dose; assay type: organism-based; conditions: in vivo
A2780 = assay: Antitumor activity against human A2780 cells xenografted in nude BALB/c mouse assessed as tumor growth inhibition at 20 mg/kg, po qd measured up to 12 days post dose; assay type: functional, organism-based
Mus musculus = assay: Toxicity in nude BALB/c mouse xenografted with human A2780 cells assessed as change in body weight at 20 mg/kg, po qd measured up to 12 days post dose; assay type: organism-based; conditions: in vivo, 288 h
[4] = Tmax in rat administered as single po dose by mass spectrometry; assay type: ADME, organism-based; conditions: in vivo
[5] = Unbound fraction in plasma (unknown origin); assay type: ADME, cell-free
[6] = Protein binding in plasma (unknown origin); assay type: ADME, cell-free; conditions: read-out: PPB (converted)
[7] = Drug recovery in plasma (unknown origin); assay type: ADME, cell-free
[8] = Stability in human plasma assessed as parent compound remaining after 75 mins relative to initial time; assay type: ADME, cell-free; conditions: read-out: Stability
[9] = Stability in human plasma assessed as parent compound remaining after 2 hrs relative to initial time; assay type: ADME, cell-free; conditions: read-out: Stability
[10] = Stability in human plasma assessed as parent compound remaining after 4 hrs relative to initial time; assay type: ADME, cell-free; conditions: read-out: Stability
[11] = Stability in human plasma assessed as parent compound remaining after 8 hrs relative to initial time; assay type: ADME, cell-free; conditions: read-out: Stability
[12] = Stability in human plasma assessed as parent compound remaining after 24 hrs relative to initial time; assay type: ADME, cell-free; conditions: read-out: Stability
[13] = Half life in mouse liver microsomes; assay type: ADME, microsome
[14] = Half life in rat liver microsomes; assay type: ADME, microsome
[15] = Half life in dog liver microsomes; assay type: ADME, Canis lupus familiaris, microsome
[16] = Half life in human liver microsomes; assay type: ADME, microsome
Cytochrome P450 1A2 = biological target: T1, Cytochrome P450 1A2 (Homo sapiens, UniProt P05177); assay: Inhibition of CYP1A2 (unknown origin); assay type: ADME
T1 sequence (P05177 whole entry): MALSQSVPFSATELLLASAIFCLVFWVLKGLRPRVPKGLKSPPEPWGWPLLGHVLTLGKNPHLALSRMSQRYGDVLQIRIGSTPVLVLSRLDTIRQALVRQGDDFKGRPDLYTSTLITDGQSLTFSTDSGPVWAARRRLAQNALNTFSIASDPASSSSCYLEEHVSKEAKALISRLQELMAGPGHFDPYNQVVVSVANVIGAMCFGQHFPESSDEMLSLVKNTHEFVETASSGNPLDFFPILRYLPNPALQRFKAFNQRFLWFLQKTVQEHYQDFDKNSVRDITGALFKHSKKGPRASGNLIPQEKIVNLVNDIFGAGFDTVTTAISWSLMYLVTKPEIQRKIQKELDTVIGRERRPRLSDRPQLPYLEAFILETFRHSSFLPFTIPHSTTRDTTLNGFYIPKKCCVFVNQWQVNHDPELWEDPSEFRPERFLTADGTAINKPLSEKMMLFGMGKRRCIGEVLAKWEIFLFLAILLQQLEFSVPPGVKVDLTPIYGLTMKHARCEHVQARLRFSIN

Cytochrome P450 2C9 = Cytochrome P450 2C9 (Homo sapiens, UniProt P11712); assay: Inhibition of CYP2C9 (unknown origin); assay type: ADME
Cytochrome P450 2C19 = Cytochrome P450 2C19 (Homo sapiens, UniProt P33261); assay: Inhibition of CYP2C19 (unknown origin); assay type: ADME
Cytochrome P450 2D6 = Cytochrome P450 2D6 (Homo sapiens, UniProt P10635); assay: Inhibition of CYP2D6 (unknown origin); assay type: ADME
Cytochrome P450 3A4 = Cytochrome P450 3A4 (Homo sapiens, UniProt P08684); assay: Inhibition of CYP3A4 (unknown origin); assay type: ADME
[17] = Efflux ratio of apparent intrinsic permeability in human Caco2 cells after 120 mins by mass spectrometry; assay type: ADME, cell-based; conditions: Caco-2
in vitro [18] = conditions: human, Caco-2
Description: Apparent intrinsic permeability in human Caco2 cells from apical to basolateral side after 120 mins by mass spectrometry

in vitro [19] = conditions: human, Caco-2; remark: listed apart in the source
Description: Apparent intrinsic permeability in human Caco2 cells from basolateral to apical side after 120 mins by mass spectrometry

Chain of Cytochrome P450 2D6 (P10635 whole entry): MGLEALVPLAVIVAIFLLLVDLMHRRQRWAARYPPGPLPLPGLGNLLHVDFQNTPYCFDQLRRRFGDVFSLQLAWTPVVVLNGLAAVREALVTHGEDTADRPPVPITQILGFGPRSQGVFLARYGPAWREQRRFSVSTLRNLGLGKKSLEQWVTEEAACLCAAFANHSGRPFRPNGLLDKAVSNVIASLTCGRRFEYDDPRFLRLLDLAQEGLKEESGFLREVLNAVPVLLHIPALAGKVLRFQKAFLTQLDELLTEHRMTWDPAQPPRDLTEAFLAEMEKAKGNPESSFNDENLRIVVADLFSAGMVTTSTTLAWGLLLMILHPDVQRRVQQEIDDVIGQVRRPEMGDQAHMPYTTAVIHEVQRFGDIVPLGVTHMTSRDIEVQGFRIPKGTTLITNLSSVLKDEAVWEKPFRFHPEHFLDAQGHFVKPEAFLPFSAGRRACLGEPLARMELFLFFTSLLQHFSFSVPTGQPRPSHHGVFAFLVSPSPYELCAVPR
Chain of Cytochrome P450 2C19 (P33261 whole entry): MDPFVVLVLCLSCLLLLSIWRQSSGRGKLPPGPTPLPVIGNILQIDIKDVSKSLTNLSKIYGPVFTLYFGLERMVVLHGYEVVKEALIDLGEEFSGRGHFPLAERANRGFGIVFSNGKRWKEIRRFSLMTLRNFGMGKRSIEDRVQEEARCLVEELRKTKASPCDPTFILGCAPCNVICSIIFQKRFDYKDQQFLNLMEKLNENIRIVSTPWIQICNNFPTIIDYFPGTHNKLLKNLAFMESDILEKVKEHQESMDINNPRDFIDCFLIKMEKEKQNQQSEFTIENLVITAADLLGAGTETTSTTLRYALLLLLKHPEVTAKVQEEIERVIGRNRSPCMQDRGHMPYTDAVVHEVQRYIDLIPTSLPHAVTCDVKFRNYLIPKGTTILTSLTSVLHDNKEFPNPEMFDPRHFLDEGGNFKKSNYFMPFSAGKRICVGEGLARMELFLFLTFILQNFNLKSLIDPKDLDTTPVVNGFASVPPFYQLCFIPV
Chain of Cytochrome P450 3A4 (P08684 whole entry): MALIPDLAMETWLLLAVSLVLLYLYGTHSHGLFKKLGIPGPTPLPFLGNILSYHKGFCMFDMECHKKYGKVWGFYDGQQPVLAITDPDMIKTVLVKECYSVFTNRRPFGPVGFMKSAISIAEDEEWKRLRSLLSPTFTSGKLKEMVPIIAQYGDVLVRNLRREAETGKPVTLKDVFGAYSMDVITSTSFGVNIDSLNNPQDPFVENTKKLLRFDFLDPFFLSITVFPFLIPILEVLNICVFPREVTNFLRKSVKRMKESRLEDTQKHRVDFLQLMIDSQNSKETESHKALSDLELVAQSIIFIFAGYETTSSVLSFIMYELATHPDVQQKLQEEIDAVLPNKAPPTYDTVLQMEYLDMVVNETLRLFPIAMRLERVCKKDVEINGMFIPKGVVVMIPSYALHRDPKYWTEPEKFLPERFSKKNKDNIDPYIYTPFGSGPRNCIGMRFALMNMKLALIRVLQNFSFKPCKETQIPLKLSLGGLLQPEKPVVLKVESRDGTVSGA
Chain of Cytochrome P450 2C9 (P11712 whole entry): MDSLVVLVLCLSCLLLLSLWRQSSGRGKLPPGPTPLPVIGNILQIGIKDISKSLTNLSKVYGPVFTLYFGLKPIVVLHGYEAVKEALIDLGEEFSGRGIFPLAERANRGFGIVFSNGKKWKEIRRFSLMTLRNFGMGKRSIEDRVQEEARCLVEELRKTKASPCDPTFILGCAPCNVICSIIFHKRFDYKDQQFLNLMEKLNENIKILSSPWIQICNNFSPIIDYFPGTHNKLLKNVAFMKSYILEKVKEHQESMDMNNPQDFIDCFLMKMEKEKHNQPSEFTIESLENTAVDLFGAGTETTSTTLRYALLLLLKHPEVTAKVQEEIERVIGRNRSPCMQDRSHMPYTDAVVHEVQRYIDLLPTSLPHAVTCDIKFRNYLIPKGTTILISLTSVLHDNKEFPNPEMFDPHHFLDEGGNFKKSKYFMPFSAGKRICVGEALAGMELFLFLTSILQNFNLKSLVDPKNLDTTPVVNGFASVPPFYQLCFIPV

Which results are given for `O=C(Nc1ccc(-c2cccc(C3CC3)c2)cn1)c1cncnc1`?
MTD [1]: ≤ 6 mg/kg; TGI (SNU-16): 74%; Tmax [2]: ≤ 15 min

With `Cc1ncc(C(=O)Nc2ccc(-c3cccc(OC4CC4)c3)cn2)cn1` as the compound, how does the MTD [1] read?
The MTD was at most 6 mg/kg.

What about the TGI (SNU-16) of the same compound?
Its TGI is 100%.

What about the MTD [3] of the same compound?
Its MTD is at most 20 mg/kg.

What about the TGI (A2780) of the same compound?
The TGI was “Active”.

What about the Activity (Mus musculus) of the same compound?
The Activity was “Non-Toxic”.

What about the Tmax [2] of the same compound?
Its Tmax is at most 15 min.

And the Tmax [4]?
Its Tmax is 15 min.

And the fraction unbound [5]?
Its fraction unbound is 0.0061.

And the fraction unbound [6]?
Its fraction unbound is 0.0061.

And the Drug recovery [7]?
The Drug recovery was 79.64%.

What about the remaining at 1.25 h [8] of the same compound?
Its remaining at 1.25 h is 89.4%.

And the remaining at 2 h [9]?
Its remaining at 2 h is 81.1%.

What about the remaining at 4 h [10] of the same compound?
Its remaining at 4 h is 91.5%.

And the remaining at 8 h [11]?
The remaining at 8 h was 74.1%.

What about the remaining at 24 h [12] of the same compound?
Its remaining at 24 h is 89.7%.

What about the half-life [13] of the same compound?
Its half-life is 13.7 min.

And the half-life [14]?
Its half-life is 10.9 min.

And the half-life [15]?
Its half-life is 20.6 min.

What about the half-life [16] of the same compound?
Its half-life is 144 min.

What about the IC50 (Cytochrome P450 1A2) of the same compound?
The IC50 was over 30 µM.

What about the IC50 (Cytochrome P450 2C9) of the same compound?
Its IC50 is over 30 µM.

And the IC50 (Cytochrome P450 2C19)?
Its IC50 is over 30 µM.

What about the IC50 (Cytochrome P450 2D6) of the same compound?
Its IC50 is over 30 µM.

And the IC50 (Cytochrome P450 3A4)?
Its IC50 is over 30 µM.

Which results are given for `O=C(Nc1ccc(-c2cccc(Cl)c2)cn1)c1cncnc1`?
MTD [1]: ≤ 6 mg/kg; TGI (SNU-16): 66%

Which MTD [1] does the source give for `Cc1ncc(C(=O)Nc2ccc(-c3cccc(NC4CC4)c3)cn2)cn1` here?
The MTD was at most 6 mg/kg.

And the TGI (SNU-16)?
The TGI was 67%.

And the Tmax [2]?
The Tmax was at most 15 min.

For `Cc1ncc(C(=O)Nc2ccc(-c3ccsc3)cn2)cn1`, which MTD [1] is on record?
Its MTD is at most 6 mg/kg.

What about the TGI (SNU-16) of the same compound?
Its TGI is 135%.

And the MTD [3]?
Its MTD is at most 20 mg/kg.

What about the TGI (A2780) of the same compound?
The TGI was “Active”.

And the Activity (Mus musculus)?
Its Activity is “Non-Toxic”.

And the fraction unbound [5]?
The fraction unbound was 0.0507.

And the fraction unbound [6]?
Its fraction unbound is 0.0507.

And the Drug recovery [7]?
Its Drug recovery is 93.56%.

What about the remaining at 1.25 h [8] of the same compound?
The remaining at 1.25 h was 91.7%.

What about the remaining at 2 h [9] of the same compound?
Its remaining at 2 h is 92.2%.

And the remaining at 4 h [10]?
The remaining at 4 h was 86.9%.

And the remaining at 8 h [11]?
Its remaining at 8 h is 71.6%.

And the remaining at 24 h [12]?
The remaining at 24 h was 49%.

And the half-life [13]?
Its half-life is 27.3 min.

And the half-life [14]?
Its half-life is 25.9 min.

What about the half-life [15] of the same compound?
Its half-life is 35.2 min.

And the half-life [16]?
Its half-life is 7.5 min.

And the IC50 (Cytochrome P450 1A2)?
Its IC50 is over 30 µM.

And the IC50 (Cytochrome P450 2C9)?
The IC50 was over 30 µM.

And the IC50 (Cytochrome P450 2C19)?
The IC50 was over 30 µM.

What about the IC50 (Cytochrome P450 2D6) of the same compound?
The IC50 was over 30 µM.

And the IC50 (Cytochrome P450 3A4)?
Its IC50 is over 30 µM.

For `CC(=O)CC(c1ccccc1)c1c(O)c2ccccc2oc1=O` (stereo not drawn) [WARFARIN], which Drug recovery [7] is on record?
Its Drug recovery is 98.63%.

For `CNC(=C[N+](=O)[O-])NCCSCc1ccc(CN(C)C)o1` [RANITIDINE], which efflux ratio at 2 h [17] is on record?
Its efflux ratio at 2 h is 3.24.

What about the Papp A→B at 2 h (in vitro [18]) of the same compound?
The Papp A→B at 2 h was 0.87 ×10⁻⁶ cm/s.

And the Papp B→A at 2 h (in vitro [19])?
The Papp B→A at 2 h was 2.83 ×10⁻⁶ cm/s.
